This assay concerns the target Genome polyprotein (Hepatitis C virus genotype 3a (isolate NZL1) (HCV), UniProt Q81258). Description: Inhibition Assay: HCV polymerase inhibition assay: HCV polymerase reactions were carried out using a modified mothod of Howe et al., Antimicrobial Agents and Chemotherapy 2004 48(12): 4813-4821.

pIC50: −log10 of the molar value.

Sequence of Genome polyprotein (Q81258 2431-3021 limits assumed): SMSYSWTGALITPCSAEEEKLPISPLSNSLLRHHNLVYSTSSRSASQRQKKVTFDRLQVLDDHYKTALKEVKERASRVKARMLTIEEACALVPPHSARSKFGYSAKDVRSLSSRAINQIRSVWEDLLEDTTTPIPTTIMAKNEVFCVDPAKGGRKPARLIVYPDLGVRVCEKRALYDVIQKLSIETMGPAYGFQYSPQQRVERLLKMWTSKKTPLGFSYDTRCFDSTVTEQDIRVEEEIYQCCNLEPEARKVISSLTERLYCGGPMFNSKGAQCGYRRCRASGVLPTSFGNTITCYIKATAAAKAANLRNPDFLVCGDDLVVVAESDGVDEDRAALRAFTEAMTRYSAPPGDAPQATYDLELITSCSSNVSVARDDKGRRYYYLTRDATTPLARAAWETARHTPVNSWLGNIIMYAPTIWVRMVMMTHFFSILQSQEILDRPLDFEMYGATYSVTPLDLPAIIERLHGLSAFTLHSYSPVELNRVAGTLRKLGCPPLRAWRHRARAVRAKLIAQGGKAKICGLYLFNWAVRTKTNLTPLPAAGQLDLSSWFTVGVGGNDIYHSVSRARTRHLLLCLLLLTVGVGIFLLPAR

`CNC(=O)c1c2cc(C3CC3)c(N(CCCNC(=O)c3ncoc3C)S(C)(=O)=O)cc2nn1-c1ccc(Br)cc1` gave a pIC50 of 7.52.

(Values after ChEMBL document CHEMBL3638530, “Viral polymerase inhibitors” (2013).)
